According to patent US20240376097A1, “BCL-2 Inhibitor” (BeiGene Ltd., priority 2020, published 2024):
Like-named read-outs stand apart in the source and are kept apart here.

Assays:
[1] = tested on: RS4;11 (BCL-2 dependent acute lymphoblastic leukemia cell line); assay: RS4;11 Cell Proliferation Assay; format: cell-based; details: Homo sapiens, RS4-11, RS4;11 cells, read-out: Cellular proliferation assay (IC50, nM) RS4
Method in brief: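 RS4;11 cells, 50,000 per well in RPMI-1640 with 10% FBS, treated 48 h at 37 °C with a 10-point dilution series topping at 1 μM. Viability read by CellTiter-Glo ATP luminescence; mean IC50 reported.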

[2] = target: Recombinant human Bcl-2 protein (Homo sapiens (Human), UniProt P10415); assay: Bcl-2 TR-FRET Assay; format: binding
Method in brief: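 Compounds were pre-incubated with 0.05 nM recombinant Bcl-2 for 0.5 h at room temperature in potassium phosphate buffer, pH 7.5. FITC-Bak peptide (0.5 nM) and Tb-cryptate antibody were then added for 1 h. Percent inhibition from TR-FRET signals gave IC50 values.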

[3] = target: recombinant human Bcl-2-G101V protein (Homo sapiens (Human), UniProt P10415, G101V); assay: Bcl-2-G101V TR-FRET Assay; format: binding; details: Bcl-2 G101V mutant, TR-FRET; read-out: Biochemical assay (IC50, nM) Bcl-2 G101V
Method in brief: (§1)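 Ex337/em490 & 520 nm TR-FRET; % inhibition of Bcl-2-G101V–ligand interaction from 490:520 ratio vs. increasing compound conc.; IC50 by 4-parameter logistic fit.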

[4] = tested on: recombinant human Bcl-2-G101V protein; assay: Bcl-2-G101V TR-FRET Assay; format: binding; details: ratio of biochemical IC50 Bcl-2 G101V / Bcl-2 WT
Method in brief: as §1

[5] = target: recombinant human Bcl-2 D103Y protein (Homo sapiens (Human), UniProt P10415, D103Y); assay: Bcl-2-D103Y Biochemical Assay (TR-FRET); format: binding; details: for IC50: TR-FRET, FITC labeled Bak peptide; for Ratio of Bcl-2 D103Y/Bcl-2 WT: ratio of IC50
Method in brief: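 Recombinant human Bcl-2 D103Y binding to its ligand measured by TR-FRET (ex 337 nm, em 490/520 nm) with increasing compound concentrations. Percent inhibition from the 490/520 nm ratio; IC50 from four-parameter logistic fit.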

[6] = tested on: BCL-2 G101V knock-in cell line H96 (derive from RS4;11); assay: Bcl 2-G101V Knock-In RS4;11 Cell Proliferation Assay; format: cell-based; details: Homo sapiens, RS4;11 Bcl-2 G101V knock-in clone H96, 48 hrs, CellTiter-GLO, read-out: Cellular proliferation assay (IC50, nM) RS4
Method in brief: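 H96, a CRISPR-generated RS4;11 clone carrying BCL2-G101V knock-in (WES/RNA-seq validated), seeded 50,000 per well and exposed 48 h at 37 °C to 10-point dilutions topping at 1 or 10 μM. Viability by CellTiter-Glo luminescence; mean IC50.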

[7] = Bcl-2 wild type, TR-FRET, read-out: Biochemical assay (IC50, nM) Bcl-2 WT
[8] = wild type Bcl-2, unit inferred, read-out: Bcl-2 WT

Compound: COc1ccc(CN2CCN(C3CC4(C3)CN(c3ccc(C(=O)NS(=O)(=O)c5ccc(NC[C@H]6CC[C@](C)(O)CC6)c([N+](=O)[O-])c5)c(Oc5cnc6[nH]cc(Cl)c6c5)c3)C4)[C@H](c3ccccc3C(C)C)C2)cc1OC [Example 164, 2-((3-chloro-1H-pyrrolo[2,3-b]pyridin-5-yl)oxy)-4-(6-((R)-4-(3,4-dimethoxybenzyl)-2-(2-isopropylphenyl)piperazin-1-yl)-2-azaspiro[3.3]heptan-2-yl)-N-((4-((((1r,4r)-4-hydroxy-4-methylcyclohexyl)methyl)amino)-3-nitrophenyl)sulfonyl)benzamide]
- IC50 [1]: 0.23 nM
- IC50 [2, 7]: 0.12 nM
- IC50 [2, 8]: 0.12 nM
- IC50 [3]: 0.35 nM
- Ratio of Bcl-2 G101V/WT [4]: 3
- IC50 [5]: 0.12 nM
- Ratio of Bcl-2 D103Y/Bcl-2 WT [5]: 1
- IC50 [6]: 0.82 nM

Compound: COc1ccc(CN2CCN(C3CC4(CCN(c5ccc(C(=O)NS(=O)(=O)c6ccc(NC[C@H]7CC[C@](C)(O)CC7)c([N+](=O)[O-])c6)c(Oc6cnc7[nH]cc(Cl)c7c6)c5)CC4)C3)[C@H](c3ccccc3C(C)C)C2)cc1OC [Example 174, 2-((3-chloro-1H-pyrrolo[2,3-b]pyridin-5-yl)oxy)-4-(2-((R)-4-(3,4-dimethoxybenzyl)-2-(2-isopropylphenyl)piperazin-1-yl)-7-azaspiro[3.5]nonan-7-yl)-N-((4-((((1r,4r)-4-hydroxy-4-methylcyclohexyl)methyl)amino)-3-nitrophenyl)sulfonyl)benzamide]
- IC50 [1]: 0.18 nM
- IC50 [2, 7]: 0.096 nM
- IC50 [2, 8]: 0.096 nM
- IC50 [3]: 0.59 nM
- Ratio of Bcl-2 G101V/WT [4]: 6.1
- IC50 [5]: 0.14 nM
- Ratio of Bcl-2 D103Y/Bcl-2 WT [5]: 1.4
- IC50 [6]: 0.49 nM

Compound: COc1cc(CN2CCN(C3CC4(CCN(c5ccc(C(=O)NS(=O)(=O)c6ccc(NC[C@H]7CC[C@](C)(O)CC7)c([N+](=O)[O-])c6)c(Oc6cnc7[nH]ccc7c6)c5)CC4)C3)C(c3ccccc3C(C)C)C2)cnc1OC (stereo partly drawn) [Example 176, 2-((1H-pyrrolo[2,3-b]pyridin-5-yl)oxy)-4-(2-(4-((5,6-dimethoxypyridin-3-yl)methyl)-2-(2-isopropylphenyl)piperazin-1-yl)-7-azaspiro[3.5]nonan-7-yl)-N-((4-((((1r,4r)-4-hydroxy-4-methylcyclohexyl)methyl)amino)-3-nitrophenyl)sulfonyl)benzamide]
- IC50 [1]: 0.39 nM
- IC50 [2, 7]: 0.035 nM
- IC50 [2, 8]: 0.035 nM
- IC50 [3]: 0.15 nM
- Ratio of Bcl-2 G101V/WT [4]: 4.3
- IC50 [5]: 0.061 nM
- Ratio of Bcl-2 D103Y/Bcl-2 WT [5]: 1.7
- IC50 [6]: 1 nM

Compound: COc1cc(CN2CCN(C3CC4(C3)CN(c3ccc(C(=O)NS(=O)(=O)c5ccc(NC[C@H]6CC[C@](C)(O)CC6)c([N+](=O)[O-])c5)c(Oc5cnc6[nH]cc(F)c6c5)c3)C4)[C@H](c3ccccc3C(C)C)C2)ccc1F [Example 184, 2-((3-fluoro-1H-pyrrolo[2,3-b]pyridin-5-yl)oxy)-4-(6-((R)-4-(4-fluoro-3-methoxybenzyl)-2-(2-isopropylphenyl)piperazin-1-yl)-2-azaspiro[3.3]heptan-2-yl)-N-((4-((((1r,4r)-4-hydroxy-4-methylcyclohexyl)methyl)amino)-3-nitrophenyl)sulfonyl)benzamide]
- IC50 [1]: 0.16 nM
- IC50 [2, 7]: 0.19 nM
- IC50 [2, 8]: 0.19 nM
- IC50 [3]: 0.53 nM
- Ratio of Bcl-2 G101V/WT [4]: 2.9
- IC50 [5]: 0.19 nM
- Ratio of Bcl-2 D103Y/Bcl-2 WT [5]: 1
- IC50 [6]: 0.44 nM

Compound: COc1ccc(CN2CCN(C3CC4(CCN(c5ccc(C(=O)NS(=O)(=O)c6ccc(NC[C@H]7CC[C@](C)(O)CC7)c([N+](=O)[O-])c6)c(Oc6cnc7[nH]ccc7c6)c5)CC4)C3)[C@H](c3ccccc3C(C)C)C2)cn1 [Example 185, 2-((1H-pyrrolo[2,3-b]pyridin-5-yl)oxy)-N-((4-((((1r,4r)-4-hydroxy-4-methylcyclohexyl)methyl)amino)-3-nitrophenyl)sulfonyl)-4-(2-((R)-2-(2-isopropylphenyl)-4-((6-methoxypyridin-3-yl)methyl)piperazin-1-yl)-7-azaspiro[3.5]nonan-7-yl)benzamide]
- IC50 [1]: 0.14 nM
- IC50 [2, 7]: 0.031 nM
- IC50 [2, 8]: 0.031 nM
- IC50 [3]: 0.14 nM
- Ratio of Bcl-2 G101V/WT [4]: 4.5
- IC50 [5]: 0.05 nM
- Ratio of Bcl-2 D103Y/Bcl-2 WT [5]: 1.6
- IC50 [6]: 0.6 nM

Compound: COc1cc(CN2CCN(C3CC4(CCN(c5ccc(C(=O)NS(=O)(=O)c6ccc(NC[C@H]7CC[C@](C)(O)CC7)c([N+](=O)[O-])c6)c(Oc6cnc7[nH]cc(F)c7c6)c5)CC4)C3)[C@H](c3ccccc3C(C)C)C2)ccc1F [Example 190, 2-((3-fluoro-1H-pyrrolo[2,3-b]pyridin-5-yl)oxy)-4-(2-((R)-4-(4-fluoro-3-methoxybenzyl)-2-(2-isopropylphenyl)piperazin-1-yl)-7-azaspiro[3.5]nonan-7-yl)-N-((4-((((1r,4r)-4-hydroxy-4-methylcyclohexyl)methyl)amino)-3-nitrophenyl)sulfonyl)benzamide]
- IC50 [1]: 0.13 nM
- IC50 [2, 7]: 0.23 nM
- IC50 [2, 8]: 0.23 nM
- IC50 [3]: 0.62 nM
- Ratio of Bcl-2 G101V/WT [4]: 2.7
- IC50 [5]: 0.34 nM
- Ratio of Bcl-2 D103Y/Bcl-2 WT [5]: 1.5
- IC50 [6]: 0.37 nM

Compound: COc1ccc(CN2CCN(C3CC4(CCN(c5ccc(C(=O)NS(=O)(=O)c6ccc(NC[C@H]7CC[C@](C)(O)CC7)c([N+](=O)[O-])c6)c(Oc6cnc7[nH]ccc7c6)c5)CC4)C3)C(c3ccccc3C(C)C)C2)nc1OC (stereo partly drawn) [Example 194, 2-((1H-pyrrolo[2,3-b]pyridin-5-yl)oxy)-4-(2-(4-((5,6-dimethoxypyridin-2-yl)methyl)-2-(2-isopropylphenyl)piperazin-1-yl)-7-azaspiro[3.5]nonan-7-yl)-N-((4-((((1r,4r)-4-hydroxy-4-methylcyclohexyl)methyl)amino)-3-nitrophenyl)sulfonyl)benzamide]
- IC50 [1]: 0.3 nM
- IC50 [2, 7]: 0.051 nM
- IC50 [2, 8]: 0.051 nM
- IC50 [3]: 0.16 nM
- Ratio of Bcl-2 G101V/WT [4]: 3.1
- IC50 [5]: 0.072 nM
- Ratio of Bcl-2 D103Y/Bcl-2 WT [5]: 1.4
- IC50 [6]: 0.82 nM

Compound: [2H]C([2H])([2H])Oc1ccc(CN2CCN(C3CC4(C3)CN(c3ccc(C(=O)NS(=O)(=O)c5ccc(NC[C@H]6CC[C@](C)(O)CC6)c([N+](=O)[O-])c5)c(Oc5cnc6[nH]cc(F)c6c5)c3)C4)[C@H](c3ccccc3C(C)C)C2)cc1OC([2H])([2H])[2H] [Example 197, 4-(6-((R)-4-(3,4-bis(methoxy-d3)benzyl)-2-(2-isopropylphenyl)piperazin-1-yl)-2-azaspiro[3.3]heptan-2-yl)-2-((3-fluoro-1H-pyrrolo[2,3-b]pyridin-5-yl)oxy)-N-((4-((((1r,4r)-4-hydroxy-4-methylcyclohexyl)methyl)amino)-3-nitrophenyl)sulfonyl)benzamide]
- IC50 [1]: 0.16 nM
- IC50 [2, 7]: 0.076 nM
- IC50 [2, 8]: 0.076 nM
- IC50 [3]: 0.15 nM
- Ratio of Bcl-2 G101V/WT [4]: 1.9
- IC50 [5]: 0.089 nM
- Ratio of Bcl-2 D103Y/Bcl-2 WT [5]: 1.2
- IC50 [6]: 0.29 nM

Compound: COc1ccc(CN2CCN(C3CC4(CCN(c5ccc(C(=O)NS(=O)(=O)c6ccc(NC[C@H]7CC[C@](C)(O)CC7)c([N+](=O)[O-])c6)c(Oc6cnc7[nH]ccc7c6)c5)CC4)C3)C(c3ccccc3C(C)C)C2)c2c1OCCO2 (stereo partly drawn) [Example 203, 2-((1H-pyrrolo[2,3-b]pyridin-5-yl)oxy)-N-((4-((((1r,4r)-4-hydroxy-4-methylcyclohexyl)methyl)amino)-3-nitrophenyl)sulfonyl)-4-(2-(2-(2-isopropylphenyl)-4-((8-methoxy-2,3-dihydrobenzo[b][1,4]dioxin-5-yl)methyl)piperazin-1-yl)-7-azaspiro[3.5]nonan-7-yl) benzamide]
- IC50 [1]: 0.38 nM
- IC50 [2, 7]: 0.052 nM
- IC50 [2, 8]: 0.052 nM
- IC50 [3]: 0.17 nM
- Ratio of Bcl-2 G101V/WT [4]: 3.2
- IC50 [5]: 0.083 nM
- Ratio of Bcl-2 D103Y/Bcl-2 WT [5]: 1.6
- IC50 [6]: 0.9 nM
